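These data come from cells grown in 96-well plates and exposed to compound for 48 hours at five concentrations. GI50 marks 50% less growth.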 Active and inactive are the calls of the source. Rule as the data show it: active = GI50 up to about 1.1 µM and inactive = higher. Square brackets hold non-standard residues; d marks the D form. Peptide text beside a SMILES is read from it. Phe(4-Cl) = N[CH](Cc1ccc(Cl)cc1)C(=O)O; 2Nal = N[CH](Cc1ccc2ccccc2c1)C(=O)O; 3Pal = N[CH](Cc1cccnc1)C(=O)O
What was measured:
Assay in all cases: DTP human tumour cell line panel, 48 h
PC-3 = system: PC-3
HCT-116 = system: HCT-116
Hs-578T = system: Hs-578T
EKVX = system: EKVX
SNB-19 = system: SNB-19
RPMI-8226 = system: RPMI-8226
HCT-15 = system: HCT-15
K562 = system: K562
HOP-92 = system: HOP-92
OVCAR-3 = system: OVCAR-3
RXF 393 = system: RXF 393
U-251 = system: U-251
MCF7 = system: MCF7
KM12 = system: KM12
A498 = system: A498
BT-549 = system: BT-549
786-0 = system: 786-0
OVCAR-5 = system: OVCAR-5
SK-MEL-28 = system: SK-MEL-28
NCI-H522 = system: NCI-H522

Row | SMILES | GI50 (PC-3) | GI50 (HCT-116) | GI50 (Hs-578T) | GI50 (EKVX) | GI50 (SNB-19) | GI50 (RPMI-8226) | GI50 (HCT-15) | GI50 (K562) | GI50 (HOP-92) | GI50 (OVCAR-3) | GI50 (RXF 393) | GI50 (U-251) | GI50 (MCF7) | GI50 (KM12) | GI50 (A498) | GI50 (BT-549) | GI50 (786-0) | GI50 (OVCAR-5) | GI50 (SK-MEL-28) | GI50 (NCI-H522)
1 | CN(C)CCSCCO | > 100 µM (inactive) | > 100 µM (inactive) | > 100 µM (inactive) | > 100 µM (inactive) | > 100 µM (inactive) | > 100 µM (inactive) | > 100 µM | > 100 µM (inactive) | > 100 µM (inactive) | > 100 µM (inactive) | > 100 µM (inactive) | > 100 µM (inactive) | > 100 µM (inactive) | > 100 µM (inactive) | > 100 µM (inactive) | > 100 µM (inactive) | > 100 µM (inactive) | > 100 µM (inactive) | > 100 µM (inactive) | > 100 µM (inactive)
2 | Cc1cc(O)c(C(C)C)cc1CN1CCCCC1 | > 100 µM (inactive) | > 100 µM (inactive) | > 100 µM (inactive) | > 100 µM (inactive) | > 100 µM (inactive) | > 100 µM (inactive) | > 100 µM | > 100 µM (inactive) | > 100 µM (inactive) | > 100 µM (inactive) | > 100 µM (inactive) | > 100 µM (inactive) | > 100 µM (inactive) | > 100 µM (inactive) | > 100 µM (inactive) | > 100 µM (inactive) | > 100 µM (inactive) | > 100 µM (inactive) | > 100 µM (inactive) | > 100 µM (inactive)
3 | CC(=O)Oc1ccc(C2SCc3nc4ccccc4n32)cc1 (stereo unspecified) | 24.2 µM (inactive) | 23.3 µM (inactive) | 32.5 µM (inactive) | 26.9 µM (inactive) | 50.6 µM (inactive) | 14.5 µM (inactive) | 25.8 µM | 7.23 µM (inactive) | 25.2 µM (inactive) | 24.4 µM (inactive) | 24.2 µM (inactive) | 25.6 µM (inactive) | 8 µM (inactive) | 15.3 µM (inactive) | 27.2 µM (inactive) | 6.4 µM (inactive) | 39.4 µM (inactive) | 69.5 µM (inactive) | 52.7 µM (inactive) | 22.8 µM (inactive)
4 | O=C(NCCSSCCNC(=O)/C(Cc1ccc(O)c(Br)c1)=N/O)/C(Cc1ccc(O)c(Br)c1)=N/O [PSAMMAPLIN A] | 1.61 µM (inactive) | 1.39 µM (inactive) | 1.77 µM (inactive) | 4.49 µM (inactive) | 2.08 µM (inactive) | 1.36 µM (inactive) | 4.89 µM | 1.81 µM (inactive) | 4.01 µM (inactive) | 1.87 µM (inactive) | 0.796 µM (active) | 1.1 µM (active) | 2.02 µM (inactive) | 1.47 µM (inactive) | 2.9 µM (inactive) | 6.21 µM (inactive) | 2.07 µM (inactive) | 2.21 µM (inactive) | 3.16 µM (inactive) | 0.682 µM (active)
5 | Nc1nc(Cl)cc(NCC2(CO)CC(CCc3ccccc3)C2)n1 (stereo unspecified) | 73.8 µM (inactive) | – | > 59.4 µM (inactive) | 2.83 µM (inactive) | > 100 µM (inactive) | 2.9 µM (inactive) | > 59.2 µM | 1.42 µM (inactive) | > 28.8 µM (inactive) | 5.07 µM (inactive) | 24.1 µM (inactive) | > 100 µM (inactive) | 9.16 µM (inactive) | 83.9 µM (inactive) | > 100 µM (inactive) | > 32.8 µM (inactive) | > 71.8 µM (inactive) | > 100 µM (inactive) | > 100 µM (inactive) | 17.6 µM (inactive)
6 | O=S1(=O)C(c2ccccc2)C(N2CCCCC2)C1C1CC2c3ccccc3C1c1ccccc12 (stereo unspecified) | > 30 µM (inactive) | 5.69 µM (inactive) | > 100 µM (inactive) | > 100 µM (inactive) | > 100 µM (inactive) | 4.5 µM (inactive) | > 48.5 µM | 5.56 µM (inactive) | 8.81 µM (inactive) | 17.6 µM (inactive) | > 100 µM (inactive) | > 85.1 µM (inactive) | 30.8 µM (inactive) | 23.3 µM (inactive) | > 100 µM (inactive) | > 100 µM (inactive) | > 100 µM (inactive) | > 100 µM (inactive) | – | 9.95 µM (inactive)
7 | CC(=O)NC(Cc1ccc2ccccc2c1)C(=O)NC(Cc1ccc(Cl)cc1)C(=O)NC(Cc1cccnc1)C(=O)NC(CO)C(=O)NC(Cc1ccc(O)cc1)C(=O)NC(CCCN=C(N)N)C(=O)NC(CC(C)C)C(=O)NC(CCCN=C(N)N)C(=O)N1CCCC1C(=O)NC(C)C(N)=O (stereo unspecified) (Ac-[2Nal][Phe(4-Cl)][3Pal]SYRLRPA-NH2; configuration not given here) | > 100 µM (inactive) | – | 50.2 µM (inactive) | > 100 µM (inactive) | > 100 µM (inactive) | > 100 µM (inactive) | > 100 µM | > 100 µM (inactive) | > 100 µM (inactive) | 49.9 µM (inactive) | > 100 µM (inactive) | > 100 µM (inactive) | > 100 µM (inactive) | > 100 µM (inactive) | > 100 µM (inactive) | > 100 µM (inactive) | 69.7 µM (inactive) | > 100 µM (inactive) | – | > 100 µM (inactive)

— ChEMBL document CHEMBL1201862, “PubChem BioAssay data set” (2004)
